Test results reported in patent US8343515B2, “Perfluorocarbon gel formulations” (Oxygen Biotherapeutics, Inc., priority 2008, dated 2013).
Like-named read-outs stand apart in the source and are kept apart here.

Tests used:
[1] = Physical properties of perfluoro(tert-butylcyclohexane); assay type: physicochemical
Description: Physical properties of perfluoro(tert-butylcyclohexane) are as follows: […]

[2] = 25° C.; cited from earlier work
[3] = tested on: skin tissue; assay: Measuring oxygen tension in tissue with fluorescent marker (Example 4); assay type: in vivo; settings: fluorescent marker injected into skin area treated with PFC or PFC gel
Description: A material which binds oxygen (fluorescent marker) is injected into skin tissue. The combination is fluorescent and the more oxygen that is present, the stronger the fluorescent signal. (representing the oxygen tension in the tissue). First it is determined that fluorescence chemistry is unaffected by the PFCs and poloxamers. Then as a control, the fluorescent marker is injected into the skin, and oxygen tension is obtained. Finally, the same area is treated with a PFC or a PFC gel and oxygen tension is again obtained.

[4] = Water solubility and lipophilicity (descriptive); assay type: physicochemical
[5] = Gas solubility / Henry's Law sorption of oxygen and CO2 in the liquid; assay type: physicochemical
Description: The amount of dissolved oxygen in the liquid is measured after equilibration with a gas. The partial pressure of the gas (here, oxygen) is varied. The partial pressure of oxygen in air is 0.21 atm.
The amount of oxygen dissolved in each when the liquids are at equilibrium with the oxygen in the air can be found from the Henry's Law sorption isotherms for the liquids sketched in FIG. 2.
When the solubility of a gas in a liquid is measured, the solubility is nearly always a linear function of the partial pressure of the gas.

[6] = used for conversion to weight basis

density [1, 6] [g/L] | Kinematic Viscosity (cP) [1] [cP] | density [1] [g/L] | Vapor Pressure (mmHg) @ 25° C. ([1]; 25° C.) [mmHg] | Vapor Pressure (mmHg) @ 37° C. ([1]; 37° C.) [mmHg] | lipophilicity [4] | solubility in water [4] | lipophilicity ([4]; at body temperature) | lipophilicity ([4]; at room temperature) | CO2 carried [5] | oxygen carried [5] | oxygen held in contact with air [5] | Compound | Henry's law constant for oxygen [2] | oxygen tension in tissue [3]
1000 | – | – | – | – | – | – | – | – | – | – | – | water | about 8.3 mg O2/L/atm | –
– | – | – | – | – | – | – | – | – | – | – | – | perfluoroisopropyldecalin [APF-200, reference compound] | – | substantially increases local oxygen tension in the tissue
1966 | 5.378 | 1970 | 3.8 | 4.4 | non-lipophilic | non-water soluble | only slightly lipophilic | not lipophilic | 196 mL of CO2 per 100 mL of PFC | about 43 mL of oxygen per 100 mL of PFC | about 126 mg O2 | FC(F)(F)C(C(F)(F)F)(C(F)(F)F)C1(F)C(F)(F)C(F)(F)C(F)(F)C(F)(F)C1(F)F [perfluoro(tert-butylcyclohexane)] | about 600 mg O2/L/atm | substantially increases local oxygen tension in the tissue
